Experimental data taken from patent US20230218714A1, “DIAGNOSTICS AND USE OF QUORUM SENSING MOLECULES IN MUSCLE WASTING” (Universiteit Gent, priority 2019, published 2023).
Entries after “also recorded” stand apart in the source; their conditions may differ. Where no end group is shown, it is not given here.

How the values were obtained:
[1] = tested on: C2C12 myoblasts; assay: MTT cell viability assay in C2C12 myoblasts
Experimental: The mouse myoblast C2C12 cell line (ATCC, CRL-1772) was cultured at 37° C. in a 5% CO2 humidified incubator in Dulbecco's modified Eagle medium (DMEM; Thermo Fisher Scientific). For C2C12 cell proliferation, the medium was supplemented with 10% fetal bovine serum (FBS; Thermo Fisher Scientific), 100 units/ml penicillin, and 100 μg/ml streptomycin (1% Pen/Strep; Thermo Fisher Scientific). The proliferation medium was renewed each 2-3 days and confluency was kept below 80%. For differentiation of the C2C12 myoblasts into myotubes, proliferation medium was replaced by differentiation medium when cells reached 80% confluency.
Viability of QSM was assessed using the 3-(4,5-dimethylthiazol-2-yl)-2,5-diphenyltetrazolium bromide (MTT) assay. Briefly, C2C12 myoblasts were seeded in a 96-well plate (3×10^4 cells/well). 24 hours post-seeding, the wells were treated with QSM (1 μM), placebo or positive control (DMSO 2%) and incubated for 24 hours at 37° C. Next, 20 μL of MTT reagent (5 mg/mL; Sigma-Aldrich) was added to each well and the plates were returned to the incubator for 2.5 hours. After incubation, supernatant was removed from the wells and 150 μL of DMSO was added to release and dissolve the formazan crystals. Absorbance was measured at 570 nm using a microplate reader (Thermo Fisher).
The MTT assay is a widely validated and accepted viability assay for screening experiments. In this assay, the reduction of MTT into formazan, catalysed by living cell enzymes, is used as a marker of cell viability. If QSM are cytotoxic or cytostatic towards C2C12 cells, a decrease in MTT reduction is expected (viability less than 100%), while an increased C2C12 proliferation caused by QSM will result in an increased MTT reduction (viability more than 100%).
In a further set of experiments, the dose response effect of QSPs Q22 and Q184 was assessed on MTT reduction of C2C12 myotubes (tables 7.4 and 7.5).

[2] = tested on: C2C12 myotubes; assay: MTT reduction dose response in C2C12 myotubes; assay type: cell-based, mouse
Experimental: In a further set of experiments, using similar methods as described for the screening experiments, a number of QSPs were tested for a dose response relation in C2C12 cells.

[3] = tested on: C. elegans; assay: C. elegans swimming behaviour (muscle wasting/aging model); assay type: in vivo; set-up: key to Wave initiation rate / Asymmetry / Stretch / Curling / Travel speed / Brush stroke / Activity index: relative to placebo set to 1.0; settings: for muscle wasting / aging muscle phenotype in C. elegans: QSP in medium (1 μM; QSP022 also 10 μM), swimming parameters; for Activity index / Asymmetry / Body wave number / Brush stroke / Curling / Stretch / Travel speed / Wave initiation rate: DMSO positive control
Description: The C. elegans model is a well-established aging model: they diminish in locomotory vigor as they age, a phenomenon that is attributed to a physical deterioration of muscle and synapses. QSPs were introduced in the medium of living C. elegans. As comparisons, a placebo experiment was used as negative control, while DMSO was used as positive control.
Using automatic, objective imaging software, different swimming behaviour variables associated with this decrease in locomotory vigor or muscle wasting were investigated. Wave initiation rate, travel speed, brush stroke and activity index do decrease with muscle wasting, while body wave number, asymmetry, curling and stretch do increase with muscle wasting, as described in Restif et al., Plos Computational Biology, 2014.
More in particular, the results in these tables show Q184-associated changes in three swimming parameters in wild-type adults at day 3 (Table 9) and day 12 (Table 10) (n=120-170 from 3 independent trials for each condition). Data presented are means±s.e.m (placebo set to 1.0).

[4] = tested on: human muscle cells; assay: MTT reduction dose response in human muscle cells; assay type: cell-based; settings: FIG. 9
Experimental: Differentiation medium consisted of high glucose Glutamax DMEM supplemented with penicillin (100 units/ml), streptomycin (100 μg/ml) and insulin (10 μg/mL).
Using similar methods as described for the C2C12 experiments, a number of QSPs were tested for a dose response relation in human muscle cells.

[5] = C. elegans medium, 1 μM during 12 days
[6] = day 3, placebo set to 1.0, Q184 at 1 μM
[7] = day 12, placebo set to 1.0, Q184 at 1 μM

With SIFTLVA [Q184, SIFTLVA] the “Imax (relative MTT)” value ([1]; Blasts) was 0.63 relative MTT, the IC10 ([1]; MTT, Blasts) was 400 nM and the IC50 ([1]; MTT, Blasts) was 1490 nM. For the same substance, the “Effect: viability (hit direction)” value ([1]; screening at 1 μM, hit selection by MAD/quartile/SSMD/robust SSMD) was “decreasing viability hits”, the IC10 ([2]; MTT, Tubes) was 10 nM and the IC50 ([2]; MTT, Tubes) was 60 nM. For the same substance, the “Imax (relative MTT)” value ([2]; Tubes) was 0.48 relative MTT, the “Relative MTT” value ([2]; concentration 0.10 μM) was 0.68 and the “Relative MTT” value ([2]; concentration 0.50 μM) was 0.60. The “Relative MTT” value ([2]; concentration 1.00 μM) was 0.56, the “Relative MTT” value ([2]; concentration 5.00 μM) was 0.49 and the “Relative MTT” value ([2]; concentration 10 μM) was 0.49. The “muscle wasting / aging muscle phenotype in C. elegans” value [3] was “induced a muscle wasting phenotype; also recorded: muscle wasting effects; also recorded: inducing a muscle wasting phenotype”, the “muscle wasting / aging muscle phenotype in C. elegans” value ([3]; listed as QSP184) was “induces an aging muscle phenotype” and the Activity index [3, 6] was 0.82. It also gave an Asymmetry [3, 6] of 1.10, a Body wave number [3, 6] of 1.01 and a Brush stroke [3, 6] of 0.87. The Curling [3, 6] was 0.92, the Stretch [3, 6] was 1.03 and the Travel speed [3, 6] was 0.55. It also gave a Wave initiation rate [3, 6] of 0.90, an Activity index [3, 7] of 0.85 and an Asymmetry [3, 7] of 1.37. It also gave a Body wave number [3, 7] of 1.29, a Brush stroke [3, 7] of 0.89 and a Curling [3, 7] of 1.50. The Stretch [3, 7] was 1.06, the Travel speed [3, 7] was 0.81 and the Wave initiation rate [3, 7] was 0.84. For the same substance, the “dose response relation, MTT reduction” value [4] was “Typical curves were obtained” and the “stability in the medium” value [5] was “high stability”.
